Like-named read-outs stand apart in the source and are kept apart here. Where only a bound is given, the exact number is not on record here.

The source of these data is patent publication US20250034150A1, “BTK INHIBITORS” (BIOGEN MA INC., priority 2021, published 2025).

One experiment deals with T1, BTK (Homo sapiens, UniProt Q06187).
T1 construct: purchased Upstate 14-552
Kind of experiment: In Vitro BTK Kinase Assay: Btk-PolyGAT-LS Assay. As to conditions: active BTK enzyme 0.25 nM, polyGAT 100 nM, 30 minutes, TRF readout; read-out: In Vitro BTK Kinase Assay IC50 Score. It counts as biochemical. The method in brief: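 Active BTK at 0.25 nM phosphorylated 100 nM fluorescein-polyGAT peptide at 10 μM ATP for 30 minutes. Buffer was Tris pH 7.5 with MgCl2, DTT, Triton X-100 and casein, and reactions were stopped with EDTA. Phospho-peptide was detected by Tb-PY20 antibody TR-FRET, and IC50 came from a four-parameter fit normalized to DMSO and EDTA controls.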

Experiment [1] deals with CD69 expression on CD19+ B cells in human whole blood. Kind of experiment: In Vitro whole blood CD69 Assay. The class given is cell-based. As to conditions: B-cell, read-out: In Vitro HWB CD69 Assay IC50 Score. In outline: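 Heparinized healthy-donor human whole blood was preincubated with compound (0.1% DMSO) for 30 min at 37 °C. Stimulation used 0.1 µg/mL anti-IgD-dextran or 20 µg/mL rabbit F(ab′)2 anti-IgD for 18–22 h at 37 °C. CD69 on gated CD19+ B cells was then measured by flow cytometry.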

Setting [2] is: human heparinized whole blood, anti-human IgD stimulation overnight, CD19+ B cells, flow cytometry.

T1 sequence (Q06187 whole entry): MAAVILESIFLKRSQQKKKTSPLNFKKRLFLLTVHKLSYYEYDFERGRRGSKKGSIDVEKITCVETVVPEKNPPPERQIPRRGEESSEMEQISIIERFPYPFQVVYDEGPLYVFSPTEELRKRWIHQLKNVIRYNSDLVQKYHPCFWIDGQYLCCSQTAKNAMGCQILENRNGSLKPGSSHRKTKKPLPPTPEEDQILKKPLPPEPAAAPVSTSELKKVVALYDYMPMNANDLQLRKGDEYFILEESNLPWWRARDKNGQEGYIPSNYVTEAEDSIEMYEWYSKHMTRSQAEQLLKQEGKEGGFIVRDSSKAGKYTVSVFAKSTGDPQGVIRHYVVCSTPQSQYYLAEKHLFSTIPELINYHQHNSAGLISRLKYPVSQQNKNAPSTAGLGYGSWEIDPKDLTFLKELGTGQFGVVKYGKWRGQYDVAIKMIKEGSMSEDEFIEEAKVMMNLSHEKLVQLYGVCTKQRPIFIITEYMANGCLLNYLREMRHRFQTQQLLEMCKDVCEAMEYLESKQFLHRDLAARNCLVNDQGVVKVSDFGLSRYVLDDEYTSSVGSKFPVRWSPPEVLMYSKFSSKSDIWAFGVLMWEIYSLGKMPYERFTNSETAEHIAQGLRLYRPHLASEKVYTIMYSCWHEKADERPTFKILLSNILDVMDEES

As for `Cn1cc(-c2cn3ncnc3c(N3CCC(CNC(=O)c4noc(C(C)(C)C)n4)CC3)n2)cn1` [Example 73, 5-(tert-butyl)-N-((1-(6-(1-methyl-1H-pyrazol-4-yl)-[1,2,4]triazolo[1,5-a]pyrazin-8-yl)piperidin-4-yl)methyl)-1,2,4-oxadiazole-3-carboxamide], the IC50 was in the range of 0.001 to 0.01 µM at BTK and 1 to 10 µM in experiment [1] (setting [2]).

Turning to `C[C@@H]1C(c2nc(C(=O)NCc3ccc(-c4nc(-c5cnn(C)c5)cc5nccn45)cc3)no2)[C@@H]1C` (mixture of isomers) [Example 62, 5-(2,3-cis-dimethylcyclopropyl)-N-(4-(7-(1-methyl-1H-pyrazol-4-yl)imidazo[1,2-c]pyrimidin-5-yl)benzyl)-1,2,4-oxadiazole-3-carboxamide], the IC50 on BTK lay within 0.001 to 0.01 µM; in experiment [1] (Homo sapiens), 1 to 10 µM.

For `Cc1cc(-c2nc(-c3cnn(C)c3)cc3nccn23)ccc1CN1Cc2nc(C(C)(C)C)sc2C1=O` [Example 38, 2-(tert-butyl)-5-(2-methyl-4-(7-(1-methyl-1H-pyrazol-4-yl)imidazo[1,2-c]pyrimidin-5-yl)benzyl)-4,5-dihydro-6H-pyrrolo[3,4-d]thiazol-6-one], the half-inhibitory concentration (IC50) on BTK is below 0.001 µM; in experiment [1] (setting [2]), 1 to 10 µM.

For the compound `Cn1cc(-c2cn3nccc3c(N3CCC(CNC(=O)c4noc(C5(C)CC5)n4)CC3)n2)cn1` [Example 137, N-((1-(6-(1-methyl-1H-pyrazol-4-yl)pyrazolo[1,5-a]pyrazin-4-yl)piperidin-4-yl)methyl)-5-(1-methylcyclopropyl)-1,2,4-oxadiazole-3-carboxamide], the figures for the IC50 (on BTK; in experiment [1] (setting [2])) were 0.001 to 0.01 µM and 1 to 10 µM, respectively.

For `Cn1cc(-c2cc3nccn3c(-c3ccc(CNC(=O)c4noc(C5(C)CC5)n4)cc3)n2)cn1` [Example 60, N-(4-(7-(1-methyl-1H-pyrazol-4-yl)imidazo[1,2-c]pyrimidin-5-yl)benzyl)-5-(1-methylcyclopropyl)-1,2,4-oxadiazole-3-carboxamide], the IC50 on BTK was 0.001 to 0.01 µM; in experiment [1] (setting [2]), 1 to 10 µM.

Take `Cc1cc(-c2nc(N3CCOCC3)cn3nccc23)ccc1CNC(=O)c1cn(C(C)(C)C)nn1` [Example 120, 1-(tert-butyl)-N-(2-methyl-4-(6-morpholinopyrazolo[1,5-a]pyrazin-4-yl)benzyl)-1H-1,2,3-triazole-4-carboxamide]: the IC50 at BTK was 0.001 to 0.01 µM; in experiment [1] (setting [2]) it was 1 to 10 µM.

As for `Cn1cc(-c2cn3nccc3c(N3CC[C@H](CNC(=O)c4cn(C(C)(C)C)nn4)[C@H](F)C3)n2)cn1` [Example 152, 1-(tert-butyl)-N-((3-fluoro-1-(6-(1-methyl-1H-pyrazol-4-yl)pyrazolo[1,5-a]pyrazin-4-yl)piperidin-4-yl)methyl)-1H-1,2,3-triazole-4-carboxamide], the IC50 on BTK fell in the range of 0.001 to 0.01 µM; in experiment [1] (setting [2]), 1 to 10 µM.

For the compound `Cn1cc(-c2cc3nccn3c(-c3ccc(CNC(=O)c4ccn(C(C)(C)C)n4)cc3)n2)cn1` [Example 56, 1-(tert-butyl)-N-(4-(7-(1-methyl-1H-pyrazol-4-yl)imidazo[1,2-c]pyrimidin-5-yl)benzyl)-1H-pyrazole-3-carboxamide], the IC50 lay in the range of 0.01 to 1 µM at BTK and 1 to 10 µM in experiment [1] (setting [2]).

With `Cn1cc(-c2cn3nccc3c(-c3ccc(CNC(=O)c4nnn(C(C)(C)C)n4)cc3)n2)cn1` [Example 3, 2-(tert-butyl)-N-(4-(6-(1-methyl-1H-pyrazol-4-yl)pyrazolo[1,5-a]pyrazin-4-yl)benzyl)-2H-tetrazole-5-carboxamide], the values for the IC50 (on BTK; in experiment [1] (setting [2])) were below 0.001 µM and below 1 µM, respectively.

For the compound `Cn1cc(-c2cn3nccc3c(-c3ccc(CNC(=O)c4nc(C(C)(C)C)co4)cc3F)n2)cn1` [Example 110, 4-(tert-butyl)-N-(3-fluoro-4-(6-(1-methyl-1H-pyrazol-4-yl)pyrazolo[1,5-a]pyrazin-4-yl)benzyl)oxazole-2-carboxamide], the IC50 on BTK lay in the range of 0.001 to 0.01 µM; in experiment [1] (setting [2]), 1 to 10 µM.

With `Cn1cc(-c2cc3nccn3c(-c3ccc(CNC(=O)c4nc(C5(CF)CC5)no4)cc3)n2)cn1` [Example 63, 3-(1-(fluoromethyl)cyclopropyl)-N-(4-(7-(1-methyl-1H-pyrazol-4-yl)imidazo[1,2-c]pyrimidin-5-yl)benzyl)-1,2,4-oxadiazole-5-carboxamide], the IC50 on BTK was in the range of 0.001 to 0.01 µM; in experiment [1] (Homo sapiens), 1 to 10 µM.

Take `Cn1cc(-c2cn3nccc3c(-c3ccc(CNC(=O)c4nnn(C(C)(C)C)n4)cc3F)n2)cn1` [Example 114, 2-(tert-butyl)-N-(3-fluoro-4-(6-(1-methyl-1H-pyrazol-4-yl)pyrazolo[1,5-a]pyrazin-4-yl)benzyl)-2H-tetrazole-5-carboxamide]: the IC50 on BTK is below 0.001 µM; in experiment [1] (setting [2]), below 1 µM.

On to `Cc1cc(-c2cc(-c3cnn(C)c3)cn3nccc23)ccc1CNC(=O)c1cn(C(C)(C)C)nn1` [Example 66, 1-(tert-butyl)-N-(2-methyl-4-(6-(1-methyl-1H-pyrazol-4-yl)pyrazolo[1,5-a]pyridin-4-yl)benzyl)-1H-1,2,3-triazole-4-carboxamide], for which the IC50 on BTK is below 0.001 µM; in experiment [1] (setting [2]), below 1 µM.

In the case of `Cn1cc(-c2cn3nccc3c(N3CCC(C)(CNC(=O)c4nc(C(C)(C)C)no4)CC3)n2)cn1` [Example 47, 3-(tert-butyl)-N-((4-methyl-1-(6-(1-methyl-1H-pyrazol-4-yl)pyrazolo[1,5-a]pyrazin-4-yl)piperidin-4-yl)methyl)-1,2,4-oxadiazole-5-carboxamide], the IC50 was in the range of 0.001 to 0.01 µM on BTK and 1 to 10 µM in experiment [1] (setting [2]).

On to `Cc1cc(-c2nc(-c3cnn(C)c3)cn3nccc23)ccc1CN1CCN(CC(C)C)C(C)C1=O` (centres unmarked) [Example 36, 4-isobutyl-3-methyl-1-(2-methyl-4-(6-(1-methyl-1H-pyrazol-4-yl)pyrazolo[1,5-a]pyrazin-4-yl)benzyl)piperazin-2-one], for which the IC50 at BTK lay within 0.001 to 0.01 µM; in experiment [1] (setting [2]), 1 to 10 µM.

Regarding `Cn1cc(-c2cn3nccc3c(-c3ccc(CNC(=O)c4coc(C(C)(C)C)n4)cc3F)n2)cn1` [Example 109], the IC50 on BTK is 0.001 to 0.01 µM; in experiment [1] (setting [2]), 1 to 10 µM.

`Cn1cc(-c2cn3nccc3c(-c3ccc(CNC(=O)c4nc(C(C)(C)C)no4)c(C(F)F)c3)n2)cn1` [Example 100, 3-(tert-butyl)-N-(2-(difluoromethyl)-4-(6-(1-methyl-1H-pyrazol-4-yl)pyrazolo[1,5-a]pyrazin-4-yl)benzyl)-1,2,4-oxadiazole-5-carboxamide]: the IC50 at BTK is below 0.001 µM; in experiment [1] (setting [2]) it was below 1 µM.

For `Cn1cc(-c2cn3nccc3c(-c3ccc(CNC(=O)c4noc(C(C)(C)CF)n4)cc3)n2)cn1` [Example 22, 5-(1-fluoro-2-methylpropan-2-yl)-N-(4-(6-(1-methyl-1H-pyrazol-4-yl)pyrazolo[1,5-a]pyrazin-4-yl)benzyl)-1,2,4-oxadiazole-3-carboxamide], the IC50 was below 0.001 µM on BTK and below 1 µM in experiment [1] (setting [2]).

For `Cn1cc(-c2cc(-c3ccc(CNC(=O)c4noc(C(C)(C)C)n4)c(F)c3)c3ccnn3c2)cn1` [Example 68, 5-(tert-butyl)-N-(2-fluoro-4-(6-(1-methyl-1H-pyrazol-4-yl)pyrazolo[1,5-a]pyridin-4-yl)benzyl)-1,2,4-oxadiazole-3-carboxamide], the 50% inhibitory concentration (IC50) on BTK is below 0.001 µM; in experiment [1] (Homo sapiens), below 1 µM.

Broadly, the IC50 is the concentration that inhibits the measured activity by half.
